Drawing on patent US6683055B1, “Low molecular weight inhibitors of complement proteases” (BASF Aktiengesellschaft, priority 1999, dated 2004), this text covers IC50 for 30 compounds.

Structures can show the parent of a compound that is named as a salt.

For orientation: IC50 means the concentration that gives 50% inhibition.

Experiment [1] concerns the target T1, C1r from human plasma, activated, two-chain form (Homo sapiens, UniProt P00736).
T1 construct: from tissue; host or cells: human plasma
T1 sequence (P00736 18-463 partner limits assumed): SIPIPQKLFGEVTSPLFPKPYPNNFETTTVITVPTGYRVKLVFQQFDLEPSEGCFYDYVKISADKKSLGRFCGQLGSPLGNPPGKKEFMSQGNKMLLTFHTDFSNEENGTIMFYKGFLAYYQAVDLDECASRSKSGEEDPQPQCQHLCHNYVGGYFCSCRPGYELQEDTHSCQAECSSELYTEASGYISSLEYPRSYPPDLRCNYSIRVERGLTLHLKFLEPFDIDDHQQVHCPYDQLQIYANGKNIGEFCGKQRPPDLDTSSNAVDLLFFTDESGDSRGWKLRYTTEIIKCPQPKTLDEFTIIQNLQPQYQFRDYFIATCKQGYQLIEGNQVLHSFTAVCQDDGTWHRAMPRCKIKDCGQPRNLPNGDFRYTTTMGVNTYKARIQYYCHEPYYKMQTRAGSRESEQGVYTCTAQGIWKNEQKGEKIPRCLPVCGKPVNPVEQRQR
T1 sequence (P00736 464-705 limits assumed): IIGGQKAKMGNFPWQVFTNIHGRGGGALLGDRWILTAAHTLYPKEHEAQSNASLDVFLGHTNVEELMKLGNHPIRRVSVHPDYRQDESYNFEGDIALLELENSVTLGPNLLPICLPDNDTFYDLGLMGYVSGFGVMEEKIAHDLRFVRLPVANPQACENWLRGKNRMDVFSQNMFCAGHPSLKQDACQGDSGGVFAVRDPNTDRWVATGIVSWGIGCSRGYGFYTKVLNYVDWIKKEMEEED
Briefly: Color substrate test for C1r inhibition (Example A). In kind it is biochemical. As to conditions: amidolytic C1r activity, substrate Cbz-Gly-Arg-S-Bzl; read-out: C1R IC50 according to Example A. An excerpt: Color Substrate Test for C1r Inhibition

The target in experiment [2] is T2, C1s from human plasma, activated, two-chain form (Homo sapiens, UniProt P09871).
T2 construct: from tissue; host or cells: human plasma
T2 sequence (P09871 16-437 partner limits assumed): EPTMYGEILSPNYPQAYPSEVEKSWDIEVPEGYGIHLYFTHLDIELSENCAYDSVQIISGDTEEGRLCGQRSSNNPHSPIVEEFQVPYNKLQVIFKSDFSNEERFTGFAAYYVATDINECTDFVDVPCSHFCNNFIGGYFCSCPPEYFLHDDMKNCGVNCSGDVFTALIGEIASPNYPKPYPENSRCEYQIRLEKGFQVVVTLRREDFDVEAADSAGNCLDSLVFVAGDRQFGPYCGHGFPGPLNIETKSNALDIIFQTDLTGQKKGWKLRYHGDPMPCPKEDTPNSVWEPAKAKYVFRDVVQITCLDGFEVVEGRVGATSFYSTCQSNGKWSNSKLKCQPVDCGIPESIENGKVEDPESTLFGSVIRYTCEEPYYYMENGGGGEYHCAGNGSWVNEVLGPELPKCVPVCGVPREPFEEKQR
T2 sequence (P09871 438-688 limits assumed): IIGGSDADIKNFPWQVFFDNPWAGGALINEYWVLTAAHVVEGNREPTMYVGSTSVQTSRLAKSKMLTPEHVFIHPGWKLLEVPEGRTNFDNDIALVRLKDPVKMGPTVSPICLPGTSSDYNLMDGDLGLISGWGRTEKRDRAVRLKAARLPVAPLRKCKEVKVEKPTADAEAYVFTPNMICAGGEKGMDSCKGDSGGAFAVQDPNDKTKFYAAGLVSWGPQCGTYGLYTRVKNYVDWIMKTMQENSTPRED
Put plainly: Color substrate test for C1s inhibition (Example B). In kind it is biochemical. As to conditions: amidolytic C1s activity, substrate Cbz-Gly-Arg-S-Bzl; read-out: C1S IC50 according to Example B. An excerpt: Material and Methods: Color Subrate Test for C1s Inhibition

Regarding “2-C6H10—CH2-Gly-Pro-NH-p-amb.2HCl [Example 7]”, the IC50 in experiment [1] was > 100 µM; in experiment [2] it was 4 µM.

`N=C(N)c1ccc(CNC(=O)[C@@H]2CCCN2C(=O)[C@@H](Cc2ccccc2)NS(=O)(=O)CC(F)(F)F)cc1` [Example 1, CF3—CH2—SO2-(D)Phe-Pro-NH-p-amb.CH3COOH]: the values for the IC50 in experiment [1] and in experiment [2] were > 100 µM and 6 µM, respectively.

`CCCCCCCCS(=O)(=O)N[C@H](Cc1ccccc1)C(=O)N1CCC[C@H]1C(=O)NCc1ccc(C(=N)N)cc1` [Example 2, n-Octyl-SO2-(D)Phe-Pro-NH-p-amb.CH3COOH]: the IC50 in experiment [1] is 50 µM; in experiment [2], 20 µM.

Regarding `N=C(N)c1ccc(CNC(=O)[C@@H]2CCCN2C(=O)[C@@H](Cc2ccccc2)NS(=O)(=O)c2cccnc2)cc1` [Example 3, 3-Py-SO2-(D)Phe-Pro-NH-p-amb.CH3COOH], the half-maximal inhibitory concentration (IC50) in experiment [1] was > 100 µM; in experiment [2], 30 µM.

For the compound `CS(=O)(=O)N[C@H](CC1CCCCC1)C(=O)N1CC=C[C@H]1C(=O)NCc1ccc(C(=N)N)cc1` [Example 4, CH3—SO2-(D)Cha-Pyr-NH-p-amb.CH3COOH], the IC50 in experiment [1] worked out at 30 µM; in experiment [2], 3 µM.

In the case of `CC(C)[C@@H](N)C(=O)N1CCC[C@H]1C(=O)NCc1ccc(C(=N)N)cc1` [Example 5, H-(D)Val-Pro-NH-p-amb.2HCl], the IC50 in experiment [2] turned out to be 10 µM.

As for `CC(C)(C)OC(=O)N[C@H](CC(=O)OCc1ccccc1)C(=O)N1CCC[C@H]1C(=O)NCc1ccc(C(=N)N)cc1` [Example 6, Boc-(D)Asp(OBn)-Pro-NH-p-amb.CH3COOH], the IC50 in experiment [2] stood at 6 µM.

On to `N=C(N)c1ccc(CNC(=O)[C@@H]2CCCN2C(=O)CNC(=O)CCc2ccccc2)cc1` [Example 8, C6H5—CH2—CH2—CO-Gly-Pro-NH-p-amb.HI], for which the IC50 in experiment [1] is > 100 µM; in experiment [2], 6 µM.

Consider `N=C(N)c1ccc(CNC(=O)[C@@H]2CCCN2C(=O)CNC(=O)CCCc2ccccc2)cc1` [Example 9, C6H5—(CH2)3—CO-Gly-Pro-NH-p-amb.HI], for which the results for the IC50 in experiment [1] and in experiment [2] were > 100 µM and 20 µM, respectively.

For the compound `CC1CCN[C@@H](C(=O)N2CCC[C@H]2C(=O)NCc2ccc(C(=N)N)cc2)C1` (stereo partly drawn) [Example 10, (D)(4-Me)Pic-Pro-NH-p-amb.2CH3COOH], the IC50 in experiment [1] was > 100 µM; in experiment [2], 20 µM.

For the compound `N=C(N)c1ccc(CNC(=O)[C@@H]2CCCN2C(=O)[C@H]2Cc3ccccc3CN2)cc1` [Example 11, H-(D)3-Tic-Pro-NH-p-amb.2CH3COOH], the IC50 was > 100 µM in experiment [1] and 30 µM in experiment [2].

In the case of `N=C(N)c1ccc(CNC(=O)[C@@H]2CCCN2C(=O)[C@@H](Cc2ccccc2)NCCCS(=O)(=O)O)cc1` [Example 12, HO3S—(CH2)3-(D)Phe-Pro-NH-p-amb.HCl], the figures for the concentration for half-maximal inhibition (IC50) in experiment [1] and in experiment [2] were > 100 µM and 30 µM, respectively.

For `CS(=O)(=O)N[C@H](CC1CCCCC1)C(=O)N1CC=C[C@H]1C(=O)NCc1ccc(C(=N)N)nc1` [Example 13, CH3—SO2-(D)Cha-Pyr-NH-3-(6-am)-pico.CH3COOH], the figures for the concentration for half-maximal inhibition (IC50) in experiment [1] and in experiment [2] were 30 µM and 10 µM, respectively.

On to `CS(=O)(=O)N[C@@H](C(=O)N1CCC[C@H]1C(=O)NCc1ccc(C(=N)N)nc1)C1CCCCC1` [Example 14, CH3—SO2-(D)Chg-Pro-NH-3-(6-am)-pico.CH3COOH], for which the half-inhibitory concentration (IC50) in experiment [1] is > 100 µM; in experiment [2], 20 µM.

Turning to `N=C(N)c1ccc(CNC(=O)[C@@H]2C=CCN2C(=O)[C@@H](CC2CCCCC2)NS(=O)(=O)Cc2ccccc2)cn1` [Example 15, C6H5—CH2—SO2-(D)Cha-Pyr-NH-3-(6-am)-pico.CH3COOH], the 50% inhibitory concentration (IC50) in experiment [1] is 3 µM; in experiment [2] it was 2 µM.

For the compound `N=C(N)c1ccc(CNC(=O)[C@@H]2CCCN2C(=O)[C@H](NS(=O)(=O)CC(=O)O)C2CCCCC2)cn1` [Example 16, HOOC—CH2—SO2-(D)Chg-Pro-NH-3-(6-am)-pico.CH3COOH], the values for the IC50 in experiment [1] and in experiment [2] were > 100 µM and 20 µM, respectively.

With `COC(=O)CS(=O)(=O)N[C@@H](C(=O)N1CCC[C@H]1C(=O)NCc1ccc(C(=N)N)nc1)C1CCCCC1` [Example 17, CH3OOC—CH2—SO2-(D)Chg-Pro-NH-3-(6-am)-pico.CH3COOH], the concentration for half-maximal inhibition (IC50) in experiment [1] is 40 µM; in experiment [2] it was 4 µM.

As for `N=C(N)c1ccc(CNC(=O)[C@@H]2C=CCN2C(=O)[C@H](NCC(=O)O)C2CCCCC2)cn1` [Example 18, HOOC—CH2-(D)Chg-Pyr-NH-3-(6-am)-pico.CH3COOH], the IC50 in experiment [1] was found to be 10 µM; in experiment [2] it was 7 µM.

Regarding `N=C(N)c1ccc(CNC(=O)[C@@H]2C=CCN2C(=O)C(CCC2CCCCC2)NCC(=O)O)cn1` (stereo partly drawn) [Example 19, HOOC—CH2-HCha-Pyr-NH-3-(6-am)-pico], the IC50 in experiment [1] and in experiment [2] was 30 µM in each case.

As for `CC(C)(C)OC(=O)Nc1ccc(CS(=O)(=O)N[C@H](CC2CCCCC2)C(=O)N2CC=C[C@H]2C(=O)NCc2ccc(C(=N)N)nc2)cc1` [Example 20, Boc-NH-p-C6H4CH2—SO2-(D)Cha-Pyr-NH-3-(6-am)-pico-CH3COOH], the half-inhibitory concentration (IC50) in experiment [1] was 0.6 µM; in experiment [2] it was 2 µM.

Take `N=C(N)c1ccc(CNC(=O)[C@@H]2C=CCN2C(=O)[C@@H](CC2CCCCC2)NS(=O)(=O)Cc2ccc(N)cc2)cn1` [Example 21, H2N-p-C6H4CH2—SO2-(D)Cha-Pyr-NH-3-(6-am)-pico-HCl]: the half-inhibitory concentration (IC50) in experiment [1] came out at 4 µM; in experiment [2], 1 µM.

With `CC(C)(C)OC(=O)Nc1ccc(CS(=O)(=O)N[C@@H](C(=O)N2CC=C[C@H]2C(=O)NCc2ccc(C(=N)N)nc2)C2CCCCC2)cc1` [Example 22, Boc-NH-p-C6H4—CH2—SO2-(D)Chg-Pyr-NH-3-(6-am)-pico.CH3COOH], the half-inhibitory concentration (IC50) in experiment [1] was 0.9 µM; in experiment [2], 0.6 µM.

`N=C(N)c1ccc(CNC(=O)[C@@H]2C=CCN2C(=O)[C@H](NS(=O)(=O)Cc2ccc(N)cc2)C2CCCCC2)cn1` [Example 23, H2N-p-C6H4—CH2—SO2-(D)Chg-Pyr-NH-CH2-3-(6-am)-pico.HCl]: the IC50 turned out to be 0.5 µM in experiment [1] and 0.8 µM in experiment [2].

For `N=C(N)c1ccc(CNC(=O)[C@@H]2CCCN2C(=O)[C@H](NCCCCCC(=O)O)C2CCCCC2)cn1` [Example 24, HOOC—(CH2)5-(D)Chg-Pro-NH-3-(6-am)-pico.CH3COOH], the IC50 in experiment [1] was > 100 µM; in experiment [2], 0.8 µM.

Consider `CCOC(=O)CCCCCN[C@@H](C(=O)N1CCC[C@H]1C(=O)NCc1ccc(C(=N)N)nc1)C1CCCCC1` [Example 25, C2H5OOC—(CH2)5-(D)Chg-Pro-NH-3-(6-am)-pico.CH3COOH], for which the IC50 in experiment [1] was determined as 50 µM; in experiment [2], 6 µM.

`N=C(N)c1ccc(CNC(=O)[C@@H]2CCCN2C(=O)[C@H](NCCCCC(=O)O)C2CCCCC2)cn1` [Example 26, HOOC—(CH2 )4-(D)Chg-Pro-NH-3-(6-am)-pico.CH3COOH]: the concentration for half-maximal inhibition (IC50) was > 100 µM in experiment [1] and 2 µM in experiment [2].

On to `CC(C)(C)OC(=O)CCCN[C@@H](C(=O)N1CCC[C@H]1C(=O)NCc1ccc(C(=N)N)nc1)C1CCCCC1` [Example 27, t-BUOOC—(CH2)3-(D)Chg-Pro-NH-3-(6-am)-pico.CH3COOH], for which the IC50 in experiment [1] came out at 10 µM; in experiment [2], 20 µM.

In the case of `N=C(N)c1ccc(CNC(=O)[C@@H]2C=CCN2C(=O)CN(Cc2ccccc2)Cc2ccccc2)cn1` [Example 28, (C6H5—CH2)2-Gly-Pyr-NH-3-(6-am)-pico.CH3COOH], the IC50 in experiment [1] is > 100 µM; in experiment [2] it was 20 µM.

Take `N=C(N)c1ccc(CNC(=O)[C@@H]2C=CCN2C(=O)[C@H](NCC(=O)O)C2CCCCC2)s1` [Example 29, HOOC—CH2-(D)Chg-Pyr-NH-CH2-5-(2-am)-thioph.CH3COOH]: the IC50 in experiment [1] came to 0.9 µM; in experiment [2], 0.6 µM.

With `N=C(N)Nc1ncc(CNC(=O)[C@@H]2C=CCN2C(=O)[C@@H](CC2CCCCC2)NCC(=O)O)s1` [Example 54, N-(Hydroxycarbonyl-methylene)-(D)cyclohexylalanyl-3,4-dehydroprolyl-[5-(2-guanidino)thiazolylmethyl]amide Bishydrochloride], in experiment [2], the IC50 came to 8 µM.
